“And” between values parts separate entries of the source, which are not always exact repeats. Equal values may be shown once. Read-outs that look alike come from different tables or passages of the source.
Legend:
wild-type Ebola Zaire [1] = experiment: microbe, parasite or virus in culture; conditions: Zaire ebolavirus, HeLa, read-out: Ebola Zaire EC50
[2] = tested on: full-length LASV glycoprotein pseudotyped VSV; experiment: microbe, parasite or virus in culture; type: cell-based, Lassa virus; conditions: Vesicular stomatitis virus, read-out: EC50 Pseudotype Assays LASV
wild-type Ebola Zaire [3] = tested on: wild-type Ebola Zaire
[4] = tested on: parent VSV virus expressing the native VSV glycoprotein; experiment: microbe, parasite or virus in culture; type: cell-based; conditions: Vesicular stomatitis virus, Vero, read-out: EC50 Pseudotype Assays VSV
in vitro [5] = conditions: mouse, microsomes
in vitro [6] = conditions: monkey, microsomes
[7] = tested on: BDBV mucin-domain-deleted glycoprotein pseudotyped VSV; experiment: microbe, parasite or virus in culture; type: cell-based, Bundibugyo ebolavirus; conditions: Vesicular stomatitis virus, Vero
in vitro [8] = conditions: African green monkey
[9] = tested on: EBOV mucin-domain-deleted glycoprotein pseudotyped VSV; experiment: microbe, parasite or virus in culture; type: cell-based, Zaire ebolavirus; conditions: Zaire ebolavirus, Vero
in vitro [10] = conditions: human, microsomes
[11] = tested on: full-length Marburgvirus (MARV) GP pseudotyped VSV; experiment: microbe, parasite or virus in culture; type: cell-based, Marburg marburgvirus; conditions: for EC50: Orthomarburgvirus, read-out: EC50 Pseudotype Assays MARV
[12] = tested on: full-length Ebola Zaire GP pseudotyped VSV (EBOV_FL); experiment: microbe, parasite or virus in culture; type: cell-based; conditions: Zaire ebolavirus, read-out: EC50 Pseudotype Assays EBOV_FL
[13] = tested on: full-length SUDV GP pseudotyped VSV; experiment: microbe, parasite or virus in culture; type: cell-based, Sudan ebolavirus; conditions: Vesicular stomatitis virus, read-out: EC50 Pseudotype Assays SUDV
wild-type Sudan Gulu [14] = experiment: microbe, parasite or virus in culture; conditions: Sudan ebolavirus, HeLa, read-out: Sudan Gulu EC50
wild-type Sudan Gulu [15] = tested on: wild-type Sudan Gulu
in vitro [16] = conditions: human
[17] = in vivo
in vivo = conditions: male, CD-1, mouse
physchem = conditions: pH 7, aqueous buffer, kinetic from dmso stock
EBOV (Mayinga) [18] = experiment: microbe, parasite or virus in culture; type: cell-based, Zaire ebolavirus; conditions: for EC50: Zaire ebolavirus, Vero
EBOV (Mayinga) [19] = experiment: microbe, parasite or virus in culture; type: cell-based, Zaire ebolavirus; conditions: for EC90: Zaire ebolavirus
[20] = tested on: human Cyp-p450 enzymes 1A2, 2B6, 2C9, 2C19, 2D6
P-gp = P-gp (Homo sapiens, UniProt P08183)
P-gp, sequence (P08183 whole entry): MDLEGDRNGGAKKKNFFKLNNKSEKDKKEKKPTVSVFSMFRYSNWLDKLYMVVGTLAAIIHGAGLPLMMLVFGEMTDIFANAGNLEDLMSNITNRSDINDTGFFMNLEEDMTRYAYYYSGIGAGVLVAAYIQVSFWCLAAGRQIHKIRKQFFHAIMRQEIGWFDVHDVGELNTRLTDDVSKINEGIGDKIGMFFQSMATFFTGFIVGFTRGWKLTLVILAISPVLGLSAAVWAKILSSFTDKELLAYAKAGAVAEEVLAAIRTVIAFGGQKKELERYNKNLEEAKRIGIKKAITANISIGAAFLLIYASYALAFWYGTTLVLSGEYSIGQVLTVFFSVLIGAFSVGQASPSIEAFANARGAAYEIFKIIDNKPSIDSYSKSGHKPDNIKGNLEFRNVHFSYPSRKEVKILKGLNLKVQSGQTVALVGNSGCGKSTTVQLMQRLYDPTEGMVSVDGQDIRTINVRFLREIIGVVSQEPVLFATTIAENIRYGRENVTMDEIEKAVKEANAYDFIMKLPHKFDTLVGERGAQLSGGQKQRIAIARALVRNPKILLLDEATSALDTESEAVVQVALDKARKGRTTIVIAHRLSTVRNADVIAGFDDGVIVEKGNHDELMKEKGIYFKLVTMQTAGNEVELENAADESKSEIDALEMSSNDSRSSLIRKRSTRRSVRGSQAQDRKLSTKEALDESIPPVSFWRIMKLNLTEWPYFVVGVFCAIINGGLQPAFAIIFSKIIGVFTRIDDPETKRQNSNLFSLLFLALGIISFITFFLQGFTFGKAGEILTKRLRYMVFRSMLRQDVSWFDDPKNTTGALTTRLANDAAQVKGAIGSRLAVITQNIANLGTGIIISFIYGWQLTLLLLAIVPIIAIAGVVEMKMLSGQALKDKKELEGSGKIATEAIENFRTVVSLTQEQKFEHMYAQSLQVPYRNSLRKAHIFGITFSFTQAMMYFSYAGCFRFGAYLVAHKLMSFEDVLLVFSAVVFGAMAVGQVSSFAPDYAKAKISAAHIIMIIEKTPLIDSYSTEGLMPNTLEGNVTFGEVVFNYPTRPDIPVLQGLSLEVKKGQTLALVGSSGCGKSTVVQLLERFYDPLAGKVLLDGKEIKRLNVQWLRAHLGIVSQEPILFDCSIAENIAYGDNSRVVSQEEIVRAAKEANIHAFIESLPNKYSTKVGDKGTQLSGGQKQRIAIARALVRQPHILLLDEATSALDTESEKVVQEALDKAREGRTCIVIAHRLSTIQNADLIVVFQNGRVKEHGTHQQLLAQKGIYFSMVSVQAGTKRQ

in vitro [21] = conditions: mouse
[22] = tested on: CYP1A2, CYP2B6, CYP2C9, CYP2C19, CYP2D6; experiment: in vitro; conditions: human
hERG ion channel = hERG ion channel (Homo sapiens, UniProt Q12809); experiment: biochemical
hERG ion channel, sequence (Q12809 whole entry): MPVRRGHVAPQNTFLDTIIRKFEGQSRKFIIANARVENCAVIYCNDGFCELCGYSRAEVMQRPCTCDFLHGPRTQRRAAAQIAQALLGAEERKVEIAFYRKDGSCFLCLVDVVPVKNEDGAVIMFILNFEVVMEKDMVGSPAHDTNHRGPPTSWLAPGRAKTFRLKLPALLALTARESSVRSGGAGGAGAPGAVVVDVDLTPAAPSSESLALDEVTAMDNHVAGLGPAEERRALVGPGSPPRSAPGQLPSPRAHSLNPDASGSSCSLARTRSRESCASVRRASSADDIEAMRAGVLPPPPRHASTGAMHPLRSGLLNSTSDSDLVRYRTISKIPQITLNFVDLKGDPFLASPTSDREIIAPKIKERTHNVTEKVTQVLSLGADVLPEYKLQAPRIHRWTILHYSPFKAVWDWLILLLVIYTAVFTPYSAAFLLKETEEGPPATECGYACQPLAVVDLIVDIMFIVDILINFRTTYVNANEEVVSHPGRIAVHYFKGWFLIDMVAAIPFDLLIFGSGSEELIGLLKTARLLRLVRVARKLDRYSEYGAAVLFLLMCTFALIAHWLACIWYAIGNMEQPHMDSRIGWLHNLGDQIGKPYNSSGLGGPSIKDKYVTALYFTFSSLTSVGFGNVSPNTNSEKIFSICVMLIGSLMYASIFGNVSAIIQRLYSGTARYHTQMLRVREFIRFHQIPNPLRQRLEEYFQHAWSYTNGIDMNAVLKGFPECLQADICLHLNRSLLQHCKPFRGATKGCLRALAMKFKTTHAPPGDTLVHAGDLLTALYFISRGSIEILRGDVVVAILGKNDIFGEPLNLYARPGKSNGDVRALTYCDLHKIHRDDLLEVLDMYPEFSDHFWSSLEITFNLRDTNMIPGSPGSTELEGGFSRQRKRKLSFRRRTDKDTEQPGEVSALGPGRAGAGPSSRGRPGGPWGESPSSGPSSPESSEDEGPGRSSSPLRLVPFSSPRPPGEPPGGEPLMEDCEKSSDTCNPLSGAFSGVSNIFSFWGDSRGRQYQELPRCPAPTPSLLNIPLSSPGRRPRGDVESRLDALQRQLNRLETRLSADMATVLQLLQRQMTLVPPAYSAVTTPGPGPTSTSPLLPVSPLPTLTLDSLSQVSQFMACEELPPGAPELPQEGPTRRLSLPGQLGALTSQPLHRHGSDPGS

in vitro [23] = conditions: human, Caco-2
human Cyp-p450 3A4 = human Cyp-p450 3A4 (Homo sapiens, UniProt P08684); experiment: biochemical
human Cyp-p450 3A4, sequence (P08684 whole entry): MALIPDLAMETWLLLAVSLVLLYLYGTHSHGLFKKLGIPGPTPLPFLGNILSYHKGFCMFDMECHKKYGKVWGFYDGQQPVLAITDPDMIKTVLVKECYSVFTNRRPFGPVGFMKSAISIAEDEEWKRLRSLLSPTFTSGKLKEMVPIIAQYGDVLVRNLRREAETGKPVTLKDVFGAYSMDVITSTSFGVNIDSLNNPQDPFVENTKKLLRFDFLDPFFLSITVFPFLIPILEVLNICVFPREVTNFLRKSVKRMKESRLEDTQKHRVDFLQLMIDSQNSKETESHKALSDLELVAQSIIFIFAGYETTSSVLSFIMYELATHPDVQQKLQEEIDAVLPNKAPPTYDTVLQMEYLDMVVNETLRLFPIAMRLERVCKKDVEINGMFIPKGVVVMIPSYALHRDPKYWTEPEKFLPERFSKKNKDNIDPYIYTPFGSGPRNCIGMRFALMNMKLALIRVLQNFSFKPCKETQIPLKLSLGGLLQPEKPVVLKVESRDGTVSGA

Ebola virus infection = conditions: human, in vivo; cited from earlier work
native EBOV virus = conditions: read-out: published EC50 against native EBOV virus; cited from earlier work
[24] = human, in vivo; cited from earlier work
[25] = read-out: EC50 Pseudotype Assays BDBV
[26] = read-out: EC50 Pseudotype Assays EBOV

## O=C(NC1CCNCC1)C12CC3CC(C1)CC(c1ccccc1)(C3)C2 [Example A63]
wild-type Ebola Zaire [1]
  EC50: 0.39 µM
[2]
  EC50: > 10 µM
wild-type Ebola Zaire [3]
  Ebola Zaire SI (CC50/EC50): >16
[4]
  EC50: > 10 µM
In vitro [5]
  half-life: > 3.5 h
In vitro [6]
  half-life: 3.95 h
[7]; read-out: EC50 BDBV
  EC50: 0.08 µM
[7]; [25]
  EC50: 0.08 µM
In vitro [8]; CC50
  CC50: > 10 µM
In vitro [8]; Cytotox CC50
  CC50: > 10 µM
[9]; read-out: EC50 EBOV
  EC50: 0.08 µM
[9]; [26]
  EC50: 0.08 µM
In vitro [10]
  half-life: 4.3 h
[11]
  EC50: 2.8 µM
[12]
  EC50: 0.04 µM

## CC12CC3CC(C(=O)NC4CCNCC4)(C1)CC(c1ccccc1)(C3)C2 (stereo not shown) [Example A68]
wild-type Ebola Zaire [1]
  EC50: 0.18 µM
[2]
  EC50: > 10 µM
wild-type Ebola Zaire [3]
  Ebola Zaire SI (CC50/EC50): 134
[4]
  EC50: > 10 µM
[13]
  EC50: 0.41 µM
In vitro [5]
  half-life: > 4 h
wild-type Sudan Gulu [14]
  EC50: 0.13 µM
In vitro [6]
  half-life: 2.37 h
wild-type Sudan Gulu [15]
  Sudan Gulu SI (CC50/EC50): 181
[7]; read-out: EC50 BDBV
  EC50: 0.16 µM
[7]; [25]
  EC50: 0.17 µM
In vitro [8]; CC50
  CC50: > 10 µM
In vitro [8]; Cytotox CC50
  CC50: > 10 µM
[9]; read-out: EC50 EBOV
  EC50: 0.035 µM
[9]; [26]
  EC50: 0.04 µM
In vitro [10]
  half-life: 3.12 h
[11]
  EC50: 2.8 µM
[12]
  EC50: 0.04 µM

## CC12CC3CC(C(=O)N[C@H]4CC[C@H](N)CC4)(C1)CC(c1ccccc1)(C3)C2.Cl (stereo partly shown) [Example A78]
In vitro [16]
  fraction unbound: 0.025
wild-type Ebola Zaire [1]
  EC50: 0.21 µM
[2]
  EC50: > 10 µM
wild-type Ebola Zaire [3]
  Ebola Zaire SI (CC50/EC50): 268.2
[4]
  EC50: > 10 µM
[13]
  EC50: 0.21 µM
[17]; male, CD-1, mouse
  F: 72%
[17]; male, CD-1, mouse, iv, 1 mg/kg
  CI: 1.783 L/h/kg
[17]; mouse
  clearance: less than hepatic blood flow
In vivo
  Vd: 14 L/kg
  half-life: 7.1 h
In vivo; 10 mg/kg
  half-life: 7 h
In vivo; iv, 1 mg/kg
  AUC(0-inf): 0.561 µg·h/mL
  AUC(0-t): 0.539 ± 0.023 µg·h/mL
  Cmax: 0.129 ± 0.04 µg/mL
  Tmax: 0.083 h
  Vd: 13.9 L/kg
  half-life: 5.4 h
In vivo; po, 10 mg/kg
  AUC(0-inf): 4.04 µg·h/mL
  AUC(0-t): 3.59 ± 0.576 µg·h/mL
  Cmax: 0.239 ± 0.046 µg/mL
  Tmax: 6 h
  bioavailability: 72%
  half-life: 7.1 h
physchem
  solubility: > 500 µM
In vitro [5]
  half-life: 4.45 h
wild-type Sudan Gulu [14]
  EC50: 0.21 µM
In vitro [6]
  half-life: > 2 h
EBOV (Mayinga) [18]
  SI50 (CC50/EC50): 41.5
  EC50: 1.1 µM
wild-type Sudan Gulu [15]
  Sudan Gulu SI (CC50/EC50): 264.3
[7]; read-out: EC50 BDBV
  EC50: 0.09 µM
[7]; [25]
  EC50: 0.09 µM
EBOV (Mayinga) [19]
  SI90 (CC50/EC90): 8.2
  EC90: 5.6 µM
In vitro [8]; Cytotox CC50
  CC50: > 10 µM
[20]
  Cyp-p450 inhibition IC50, 1A2, 2B6, 2C9, 2C19: not an inhibitor
P-gp
  P-gp substrate ID Caco-2 Permeability (+Verapamil) Paap Mean A > B: 8.47 10^−6 cm s^−1
  P-gp substrate ID Caco-2 Permeability (+Verapamil) Paap Mean B > A: 7.45 10^−6 cm s^−1
In vitro [21]
  fraction unbound: 0.014
[22]
  IC50: ≥ 90 µM
hERG ion channel
  IC50: > 10 µM
In vitro [23]
  Papp A→B: 36.1 nm/s
  Papp B→A: 156 nm/s
  efflux ratio: 4.32
[9]; read-out: EC50 EBOV
  EC50: 0.02 µM
[9]; [26]
  EC50: 0.02 µM
In vitro [10]
  half-life: 7.7 h
Human Cyp-p450 3A4; Cyp-p450 inhibition IC50, 3A4 (Midazolam)
  IC50: > 100 µM
Human Cyp-p450 3A4; Cyp-p450 inhibition IC50, 3A4 (Testosterone)
  IC50: ~28 µM and 28 µM
[11]
  EC50: 3.5 µM
[12]
  EC50: 0.05 µM

## CCC12CC3CC(C(=O)NC4CCNCC4)(C1)CC(c1ccccc1)(C3)C2 (stereo not shown) [Example A80]
wild-type Ebola Zaire [1]
  EC50: 0.13 µM
[2]
  EC50: > 10 µM
wild-type Ebola Zaire [3]
  Ebola Zaire SI (CC50/EC50): 137
[4]
  EC50: > 10 µM
[13]
  EC50: 0.4 µM
In vitro [5]
  half-life: > 2 h
wild-type Sudan Gulu [14]
  EC50: 0.14 µM
In vitro [6]
  half-life: 1.48 h
EBOV (Mayinga) [18]
  SI50 (CC50/EC50): 95.6
  EC50: 0.89 µM
wild-type Sudan Gulu [15]
  Sudan Gulu SI (CC50/EC50): 130
[7]; read-out: EC50 BDBV
  EC50: 0.05 µM
[7]; [25]
  EC50: 0.06 µM
EBOV (Mayinga) [19]
  SI90 (CC50/EC90): 9.6
  EC90: 8.9 µM
In vitro [8]; CC50
  CC50: 10 µM
In vitro [8]; Cytotox CC50
  CC50: > 10 µM
[9]; read-out: EC50 EBOV
  EC50: 0.01 µM
[9]; [26]
  EC50: 0.02 µM
In vitro [10]
  half-life: 1.72 h
[11]
  EC50: 1.1 µM
[12]
  EC50: 0.04 µM

## CCC12CC3CC(C(=O)N[C@H]4CC[C@H](N)CC4)(C1)CC(c1ccccc1)(C3)C2 (stereo partly shown) [Example A85]
wild-type Ebola Zaire [1]
  EC50: 0.1 µM
wild-type Ebola Zaire [3]
  Ebola Zaire SI (CC50/EC50): 112
In vitro [5]
  half-life: > 2 h
wild-type Sudan Gulu [14]
  EC50: 0.18 µM
In vitro [6]
  half-life: 1.4 h
wild-type Sudan Gulu [15]
  Sudan Gulu SI (CC50/EC50): 64
[7]; read-out: EC50 BDBV
  EC50: 0.096 µM
In vitro [8]; CC50
  CC50: 12.1 µM
[9]; read-out: EC50 EBOV
  EC50: 0.013 µM
In vitro [10]
  half-life: > 2 h

## CC1CCN(CC(O)COc2ccc(C34CC5CC(CC(C5)C3)C4)cc2)CC1 (stereo not shown) [Example D21, 1-[4-(adamantan-1-yl)phenoxy]-3-(4-methylpiperidin-1-yl)propan-2-ol]
wild-type Ebola Zaire [1]
  EC50: 0.15 µM
[2]
  EC50: 3 µM
wild-type Ebola Zaire [3]
  Ebola Zaire SI (CC50/EC50): 48.1
[4]
  EC50: 3.7 µM
[13]
  EC50: 0.41 µM
wild-type Sudan Gulu [14]
  EC50: 0.19 µM
wild-type Sudan Gulu [15]
  Sudan Gulu SI (CC50/EC50): 38.2
[7]; 24 h, read-out: EC50 BDBV
  EC50: 0.11 µM
[7]; [25]
  EC50: 0.11 µM
In vitro [8]; CC50
  CC50: 1.1 µM
In vitro [8]; Cytotox CC50
  CC50: 3.7 µM
[9]; 24 h, read-out: EC50 EBOV
  EC50: 0.05 µM
[9]; [26]
  EC50: 0.05 µM
[11]
  MARV pseudotyped virus EC50 concentration (in words): sub-micromolar
  EC50: 0.36 µM
[12]
  EC50: 0.11 µM

## OCCN1CCN(CC(O)COc2ccc(C34CC5CC(CC(C5)C3)C4)cc2)CC1 (stereo not shown) [Example D24, 1[4-(adamantan-1-yl)phenoxy]-3[4-(2-hydroxyethyl)piperazin-1-yl]propan-2-ol]
wild-type Ebola Zaire [1]
  EC50: 0.44 µM
[2]
  EC50: > 10 µM
wild-type Ebola Zaire [3]
  Ebola Zaire SI (CC50/EC50): 45.6
[4]
  EC50: > 10 µM
[13]
  EC50: 2.43 µM
wild-type Sudan Gulu [14]
  EC50: 0.26 µM
wild-type Sudan Gulu [15]
  Sudan Gulu SI (CC50/EC50): 78.7
[7]; 24 h, read-out: EC50 BDBV
  EC50: 0.27 µM
[7]; [25]
  EC50: 0.27 µM
In vitro [8]; CC50
  CC50: 4.3 µM
In vitro [8]; Cytotox CC50
  CC50: > 10 µM
[9]; 24 h, read-out: EC50 EBOV
  EC50: 0.08 µM
[9]; [26]
  EC50: 0.09 µM
[11]
  EC50: > 10 µM
[12]
  EC50: 0.08 µM

## CN(C)CCCNc1nc(C23CC4CC(CC(C4)C2)C3)cs1 [Example D29, (3-{[4-(adamantan-1-yl)-1,3-thiazol-2-yl]amino}propyl) dimethylamine]
wild-type Ebola Zaire [1]
  EC50: 0.92 µM
[2]
  EC50: > 10 µM
wild-type Ebola Zaire [3]
  Ebola Zaire SI (CC50/EC50): 66.1
[4]
  EC50: > 10 µM
[13]
  EC50: 1.44 µM
wild-type Sudan Gulu [14]
  EC50: 0.3 µM
wild-type Sudan Gulu [15]
  Sudan Gulu SI (CC50/EC50): 203
[7]; 24 h, read-out: EC50 BDBV
  EC50: 0.16 µM
[7]; [25]
  EC50: 0.16 µM
In vitro [8]; CC50
  CC50: 9.4 µM
In vitro [8]; Cytotox CC50
  CC50: > 10 µM
[9]; 24 h, read-out: EC50 EBOV
  EC50: 0.17 µM
[9]; [26]
  EC50: 0.17 µM
[11]
  MARV pseudotyped virus EC50 concentration (in words): sub-micromolar
  EC50: 0.66 µM
[12]
  EC50: 0.18 µM

## NC(=O)c1nc(F)c[nH]c1=O [favipiravir]
Ebola virus infection
  drop in viral load: 3-4 log
Native EBOV virus
  EC50: 67 µM
EBOV (Mayinga) [19]
  SI90 (CC50/EC90): 3
  EC90: 333 µM
[24]
  half-life in humans: 1 to 4 h
